Test results as given in US20260042764A1, “COMPOSITIONS AND METHODS FOR INHIBITION OF KRAS” (TheRas, Inc., priority 2022, published 2026).

Biological target: T1, Avi-KRAS G12R (1-169) GppNHp/RAF1 RBD-3xFLAG (52-151) (Homo sapiens, UniProt P01116, G12R)
T1 construct: Avi-KRAS G12R (1-169)
Experiment: Raf1-KRAS G12R-GppNHP disruption HTRF assay (Biological Example 1)
Format: binding
Conditions: KRAS G12R, GppNHp-loaded; Table 11
Method in brief: (§1)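 Read-out is HTRF signal of the KRAS–RAF1 RBD complex, reported as percentage of activity relative to DMSO (100%). Protein mix and detection reagents each incubated 1 h at room temperature with 700 rpm shaking. Buffer: 50 mM Tris pH 7.5, 100 mM NaCl, 5 mM MgCl2, 0.1% BSA, 0.01% Tween, 10% DMSO.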

T1 sequence (P01116 1-169 isoform P01116-2 G12R): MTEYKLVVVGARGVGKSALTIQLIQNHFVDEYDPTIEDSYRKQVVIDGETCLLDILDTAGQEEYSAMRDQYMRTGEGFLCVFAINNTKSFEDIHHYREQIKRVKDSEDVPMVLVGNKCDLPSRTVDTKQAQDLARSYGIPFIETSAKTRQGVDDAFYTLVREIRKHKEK

| Structure (SMILES) | IC50 |
| --- | --- |
| C[C@H]1CN(c2nc(OC[C@@]34CCCN3C[C@H](F)C4)nc3c(F)c(-c4ccc(F)c5sc(N)c(C#N)c45)c(C(F)(F)F)cc23)CCO1 [Compound 142] | 100 to 1000 nM |
| C[C@@H]1CN(c2nc(OC[C@@]34CCCN3C[C@H](F)C4)nc3c(F)c(-c4ccc(F)c5sc(N)c(C#N)c45)c(C(F)(F)F)cc23)C[C@H](C)O1 [Compound 143] | 1000 to 10000 nM |
| C[C@@H]1CN(c2nc(OC[C@@]34CCCN3C[C@H](F)C4)nc3c(F)c(-c4ccc(F)c5sc(N)c(C#N)c45)c(C(F)(F)F)cc23)C[C@@H](C)O1 [Compound 144] | 100 to 1000 nM |
| N#Cc1c(N)sc2c(F)ccc(-c3c(C(F)(F)F)cc4c(N5CC6CCC5CO6)nc(OC[C@@]56CCCN5C[C@H](F)C6)nc4c3F)c12 (some centres unmarked) [Compound 146] | 100 to 1000 nM |
| N#Cc1c(N)sc2c(F)ccc(-c3c(C(F)(F)F)cc4c(N5CC6(COC6)C5)nc(OC[C@@]56CCCN5C[C@H](F)C6)nc4c3F)c12 [Compound 149] | 1000 to 10000 nM |
| N#Cc1c(N)sc2c(F)ccc(-c3c(C(F)(F)F)cc4c(N5CCC(F)(F)CC5)nc(OC[C@@]56CCCN5C[C@H](F)C6)nc4c3F)c12 [Compound 150] | 100 to 1000 nM |
| N#Cc1c(N)sc2c(F)ccc(-c3c(C(F)(F)F)cc4c(N5CCC(F)CC5)nc(OC[C@@]56CCCN5C[C@H](F)C6)nc4c3F)c12 [Compound 151] | 100 to 1000 nM |

System: GP2d cells (KRAS G12D)
Experiment: Cell-based pERK HTRF assay in GP2d cell (Biological Example 2)
Conditions: GP2d, GP2d (KRAS G12D) cells, pERK HTRF
Method in brief: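 Treatment with test compounds lasted one hour in DMEM containing 10% FBS, with DMSO held at 0.25%. Dilution series: 9 points, half-log spacing, highest 1 μM or 100 nM. Lysates were incubated 4–24 h at room temperature with antibody mix, then HTRF was read at 320 nm excitation.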

| Structure (SMILES) | IC50 |
| --- | --- |
| C[C@H]1CN(c2nc(OC[C@@]34CCCN3C[C@H](F)C4)nc3c(F)c(-c4ccc(F)c5sc(N)c(C#N)c45)c(C(F)(F)F)cc23)CCO1 [Compound 142] | < 100 nM |
| C[C@@H]1CN(c2nc(OC[C@@]34CCCN3C[C@H](F)C4)nc3c(F)c(-c4ccc(F)c5sc(N)c(C#N)c45)c(C(F)(F)F)cc23)C[C@H](C)O1 [Compound 143] | 100 to 1000 nM |
| C[C@@H]1CN(c2nc(OC[C@@]34CCCN3C[C@H](F)C4)nc3c(F)c(-c4ccc(F)c5sc(N)c(C#N)c45)c(C(F)(F)F)cc23)C[C@@H](C)O1 [Compound 144] | < 100 nM |
| N#Cc1c(N)sc2c(F)ccc(-c3c(C(F)(F)F)cc4c(N5CC6CCC5CO6)nc(OC[C@@]56CCCN5C[C@H](F)C6)nc4c3F)c12 (some centres unmarked) [Compound 146] | < 100 nM |
| N#Cc1c(N)sc2c(F)ccc(-c3c(C(F)(F)F)cc4c(N5CC6(COC6)C5)nc(OC[C@@]56CCCN5C[C@H](F)C6)nc4c3F)c12 [Compound 149] | < 100 nM |
| N#Cc1c(N)sc2c(F)ccc(-c3c(C(F)(F)F)cc4c(N5CCC(F)(F)CC5)nc(OC[C@@]56CCCN5C[C@H](F)C6)nc4c3F)c12 [Compound 150] | < 100 nM |
| N#Cc1c(N)sc2c(F)ccc(-c3c(C(F)(F)F)cc4c(N5CCC(F)CC5)nc(OC[C@@]56CCCN5C[C@H](F)C6)nc4c3F)c12 [Compound 151] | < 100 nM |

Biological target: T2, Avi-KRAS G12D (1-169) GppNHp/RAF1 RBD-3xFLAG (52-151) (Homo sapiens, UniProt P01116, G12D)
T2 construct: Avi-KRAS G12D (1-169)
Experiment: Raf1-KRAS G12D-GppNHP disruption HTRF assay (Biological Example 1)
Format: binding
Conditions: KRAS G12D, GppNHp-loaded; Table 11
Method in brief: as §1

T2 sequence (P01116 1-169 isoform P01116-2 G12D): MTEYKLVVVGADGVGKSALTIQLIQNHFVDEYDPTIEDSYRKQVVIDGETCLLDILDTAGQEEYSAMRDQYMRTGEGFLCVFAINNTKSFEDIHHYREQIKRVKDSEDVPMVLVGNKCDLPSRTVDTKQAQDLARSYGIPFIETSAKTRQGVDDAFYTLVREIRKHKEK

| Structure (SMILES) | IC50 |
| --- | --- |
| C[C@H]1CN(c2nc(OC[C@@]34CCCN3C[C@H](F)C4)nc3c(F)c(-c4ccc(F)c5sc(N)c(C#N)c45)c(C(F)(F)F)cc23)CCO1 [Compound 142] | 100 to 1000 nM |
| C[C@@H]1CN(c2nc(OC[C@@]34CCCN3C[C@H](F)C4)nc3c(F)c(-c4ccc(F)c5sc(N)c(C#N)c45)c(C(F)(F)F)cc23)C[C@H](C)O1 [Compound 143] | 100 to 1000 nM |
| C[C@@H]1CN(c2nc(OC[C@@]34CCCN3C[C@H](F)C4)nc3c(F)c(-c4ccc(F)c5sc(N)c(C#N)c45)c(C(F)(F)F)cc23)C[C@@H](C)O1 [Compound 144] | 100 to 1000 nM |
| N#Cc1c(N)sc2c(F)ccc(-c3c(C(F)(F)F)cc4c(N5CC6CCC5CO6)nc(OC[C@@]56CCCN5C[C@H](F)C6)nc4c3F)c12 (some centres unmarked) [Compound 146] | 100 to 1000 nM |
| N#Cc1c(N)sc2c(F)ccc(-c3c(C(F)(F)F)cc4c(N5CC6(COC6)C5)nc(OC[C@@]56CCCN5C[C@H](F)C6)nc4c3F)c12 [Compound 149] | 100 to 1000 nM |
| N#Cc1c(N)sc2c(F)ccc(-c3c(C(F)(F)F)cc4c(N5CCC(F)(F)CC5)nc(OC[C@@]56CCCN5C[C@H](F)C6)nc4c3F)c12 [Compound 150] | 100 to 1000 nM |
| N#Cc1c(N)sc2c(F)ccc(-c3c(C(F)(F)F)cc4c(N5CCC(F)CC5)nc(OC[C@@]56CCCN5C[C@H](F)C6)nc4c3F)c12 [Compound 151] | 100 to 1000 nM |

Biological target: T3, Avi-KRAS G12V (1-169) GppNHp/RAF1 RBD-3xFLAG (52-151) (Homo sapiens, UniProt P01116, G12V)
T3 construct: Avi-KRAS G12V (1-169)
Experiment: Raf1-KRAS G12V-GppNHP disruption HTRF assay (Biological Example 1)
Format: binding
Conditions: KRAS G12V, GppNHp-loaded; Table 11
Method in brief: as §1

T3 sequence (P01116 1-169 isoform P01116-2 G12V): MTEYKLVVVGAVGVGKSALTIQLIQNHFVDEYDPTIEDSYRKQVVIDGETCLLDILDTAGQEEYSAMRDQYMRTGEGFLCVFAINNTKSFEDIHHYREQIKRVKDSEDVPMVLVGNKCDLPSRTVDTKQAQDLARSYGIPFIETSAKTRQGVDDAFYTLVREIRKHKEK

| Structure (SMILES) | IC50 |
| --- | --- |
| C[C@H]1CN(c2nc(OC[C@@]34CCCN3C[C@H](F)C4)nc3c(F)c(-c4ccc(F)c5sc(N)c(C#N)c45)c(C(F)(F)F)cc23)CCO1 [Compound 142] | 1000 to 10000 nM |
| C[C@@H]1CN(c2nc(OC[C@@]34CCCN3C[C@H](F)C4)nc3c(F)c(-c4ccc(F)c5sc(N)c(C#N)c45)c(C(F)(F)F)cc23)C[C@H](C)O1 [Compound 143] | 1000 to 10000 nM |
| C[C@@H]1CN(c2nc(OC[C@@]34CCCN3C[C@H](F)C4)nc3c(F)c(-c4ccc(F)c5sc(N)c(C#N)c45)c(C(F)(F)F)cc23)C[C@@H](C)O1 [Compound 144] | 1000 to 10000 nM |
| N#Cc1c(N)sc2c(F)ccc(-c3c(C(F)(F)F)cc4c(N5CC6CCC5CO6)nc(OC[C@@]56CCCN5C[C@H](F)C6)nc4c3F)c12 (some centres unmarked) [Compound 146] | 100 to 1000 nM |
| N#Cc1c(N)sc2c(F)ccc(-c3c(C(F)(F)F)cc4c(N5CC6(COC6)C5)nc(OC[C@@]56CCCN5C[C@H](F)C6)nc4c3F)c12 [Compound 149] | 1000 to 10000 nM |
| N#Cc1c(N)sc2c(F)ccc(-c3c(C(F)(F)F)cc4c(N5CCC(F)(F)CC5)nc(OC[C@@]56CCCN5C[C@H](F)C6)nc4c3F)c12 [Compound 150] | 1000 to 10000 nM |
| N#Cc1c(N)sc2c(F)ccc(-c3c(C(F)(F)F)cc4c(N5CCC(F)CC5)nc(OC[C@@]56CCCN5C[C@H](F)C6)nc4c3F)c12 [Compound 151] | 100 to 1000 nM |

Biological target: T4, Avi-KRAS WT (1-169) GppNHp/RAF1 RBD-3xFLAG (52-151) (Homo sapiens, UniProt P01116)
T4 construct: Avi-KRAS WT (1-169)
Experiment: Raf1-KRAS WT-GppNHP disruption HTRF assay (Biological Example 1)
Format: binding
Conditions: KRAS WT, GppNHp-loaded; Table 11
Method in brief: as §1

T4 sequence (P01116 1-169 isoform P01116-2): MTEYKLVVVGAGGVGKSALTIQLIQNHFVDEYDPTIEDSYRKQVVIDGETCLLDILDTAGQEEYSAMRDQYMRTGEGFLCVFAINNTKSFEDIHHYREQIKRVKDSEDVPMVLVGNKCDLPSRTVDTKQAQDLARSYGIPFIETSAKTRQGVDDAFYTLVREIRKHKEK

| Structure (SMILES) | IC50 |
| --- | --- |
| C[C@H]1CN(c2nc(OC[C@@]34CCCN3C[C@H](F)C4)nc3c(F)c(-c4ccc(F)c5sc(N)c(C#N)c45)c(C(F)(F)F)cc23)CCO1 [Compound 142] | 100 to 1000 nM |
| C[C@@H]1CN(c2nc(OC[C@@]34CCCN3C[C@H](F)C4)nc3c(F)c(-c4ccc(F)c5sc(N)c(C#N)c45)c(C(F)(F)F)cc23)C[C@H](C)O1 [Compound 143] | 100 to 1000 nM |
| C[C@@H]1CN(c2nc(OC[C@@]34CCCN3C[C@H](F)C4)nc3c(F)c(-c4ccc(F)c5sc(N)c(C#N)c45)c(C(F)(F)F)cc23)C[C@@H](C)O1 [Compound 144] | 100 to 1000 nM |
| N#Cc1c(N)sc2c(F)ccc(-c3c(C(F)(F)F)cc4c(N5CC6CCC5CO6)nc(OC[C@@]56CCCN5C[C@H](F)C6)nc4c3F)c12 (some centres unmarked) [Compound 146] | 100 to 1000 nM |
| N#Cc1c(N)sc2c(F)ccc(-c3c(C(F)(F)F)cc4c(N5CC6(COC6)C5)nc(OC[C@@]56CCCN5C[C@H](F)C6)nc4c3F)c12 [Compound 149] | 100 to 1000 nM |
| N#Cc1c(N)sc2c(F)ccc(-c3c(C(F)(F)F)cc4c(N5CCC(F)(F)CC5)nc(OC[C@@]56CCCN5C[C@H](F)C6)nc4c3F)c12 [Compound 150] | 100 to 1000 nM |
| N#Cc1c(N)sc2c(F)ccc(-c3c(C(F)(F)F)cc4c(N5CCC(F)CC5)nc(OC[C@@]56CCCN5C[C@H](F)C6)nc4c3F)c12 [Compound 151] | 100 to 1000 nM |
